# *1 amine or outer side, *2 acyl side, *3 side chain or, on linkers, in order; H or OH if unused. Where a SMILES comes first, the peptide text is derived from it. The star is where a group is joined. γGlu = O=C(O)[CH](CCC(=O)[*:2])N[*:1]; NHOH = ON*
# Assays:
# [1] = molecular target: Lactoylglutathione lyase (Saccharomyces cerevisiae); assay: Compound was evaluated for inhibition of Saccharomyces cerevisiae glyoxalase-I by using enzymatic assay at each of 6 substrate concentrations between 0.1 mM and 2.0 mM
# [2] = molecular target: Lactoylglutathione lyase (Saccharomyces cerevisiae); assay: Compound was evaluated for inhibition of Saccharomyces cerevisiae glyoxalase-I, activity is determined with 0.5 mM substrate
Ki [1],IC50 [2],SMILES
1.9 µM,–,CN(O)C(=O)CCC(NC(=O)CCC(N)C(=O)O)C(=O)NCC(=O)O (stereo not drawn) [2-Amino-4-[1-(carboxymethyl-carbamoyl)-3-(hydroxy-methyl-carbamoyl)-propylcarbamoyl]-butyric acid anion]
92.9 µM,–,NC(CCC(=O)NC(CCC(=O)NO)C(=O)NCC(=O)O)C(=O)O (stereo not drawn) [2-Amino-4-[1-(carboxymethyl-carbamoyl)-3-hydroxycarbamoyl-propylcarbamoyl]-butyric acid anion] (γGlu-Glu(NHOH)-Gly-OH; configuration not given here)
–,1620 µM,CCOC(=O)CNC(=O)C(CCC(=O)NO)NC(=O)CCC(N)C(=O)O (stereo not drawn) [2-Amino-4-[1-(ethoxycarbonylmethyl-carbamoyl)-3-hydroxycarbamoyl-propylcarbamoyl]-butyric acid anion] (γGlu-Glu(NHOH)-Gly-OEt; configuration not given here)

# Reference: BindingDB's records for doi:10.1016/s0960-894x(98)00116-4 (University of Waterloo, 1999)
